Source: patent US9878999B2, “Proteasome chymotrypsin-like inhibition using PI-1833 analogs” (H. Lee Moffitt Cancer Center and Research Institute, Inc., priority 2011, dated 2018)
“Also recorded” adds a separate entry of the source. Where two headings read alike, the source gives them in different places.

Columns and labels:
[1] = target: CT-L activity of purified 20S proteasome (Homo sapiens, UniProt P20618+P28074); test: in vitro CT-L activity of purified 20S proteasome; format: biochemical
[2] = target: T1, CT-L activity in human breast cancer MDA-MB-468 cells (Homo sapiens, UniProt P20618+P28074); test: whole cell CT-L activity in MDA-MB-468 cells; format: cell-based; details: MDA-MB-468; listed as PI-1840
T1 construct: endogenous in cells; host or cells: MDA-MB-468

[3] = target: T2, T-L activity in MDA-MB-468 cells (Homo sapiens, UniProt Q99436); test: T-L activity in MDA-MB-468 cells; format: cell-based; details: MDA-MB-468, within 10 min
T2 construct: endogenous in cells; host or cells: MDA-MB-468

[4] = target: T3, PGPH activity in MDA-MB-468 cells (Homo sapiens, UniProt P28072); test: PGPH activity in MDA-MB-468 cells; format: cell-based; details: MDA-MB-468, within 10 min
T3 construct: endogenous in cells; host or cells: MDA-MB-468

[5] = tested on: proteasome substrates p27, Bax and IKB; test: Western blot, accumulation of proteasome substrates; format: cell-based
[6] = tested on: MDA-MB-468 and HCT-116 cells; test: Western blot for cleaved caspase-3 and cleaved PARP (apoptosis); format: cell-based, human; details: 48 h or 24 h
Method: FIG. 17 is a blot showing the apoptotic potential of PI-1833 and PI-1840. Exponentially growing human breast cancer cells MDA-MB-468 and colon cancer cells HCT-116 were treated with different concentrations of PI-1833 or PI-1840 for 48 h or 24 h, followed by WB analysis for cleaved caspase-3 and cleaved PARP.

MDA-MB-468 = test: MTT assay, proliferation and viability; format: cell-based; details: Homo sapiens, MDA-MB-468, WT K-Ras
MDA-MB-231 = test: MTT assay, proliferation and viability; format: cell-based; details: Homo sapiens, MDA-MB-231, mut K-Ras
HCT-116 = test: MTT assay, proliferation and viability; format: cell-based; details: Homo sapiens, HCT-116, mut K-Ras
HCT-116-p53^−/− = test: MTT assay, proliferation and viability; format: cell-based
HCT-116-HKH2 = test: MTT assay, proliferation and viability; format: cell-based; details: HCT-116-HKH2, K-Ras^−/−
DU-145 = test: MTT assay, proliferation and viability; format: cell-based; details: Homo sapiens, DU-145, Bax^−/−
LNCaP = test: MTT assay, proliferation and viability; format: cell-based; details: Homo sapiens, Bax^+/+
PC3 = test: MTT assay, proliferation and viability; format: cell-based; details: Homo sapiens, PC-3
RPMI-8226 = test: MTT assay, proliferation and viability; format: cell-based; details: Homo sapiens
Colo357 = test: MTT assay, proliferation and viability; format: cell-based; details: Homo sapiens, COLO357, 96 h
RX7-397 = test: MTT assay, proliferation and viability; format: cell-based; details: RX7-397, 96 h
MCF-10A = test: MTT assay, proliferation and viability; format: cell-based; details: Homo sapiens, normal/immortalized, 72 h
[7] = 72 h, read-out: 72 h (MTT assay)
[8] = 96 h, read-out: 96 h (MTT assay)
[9] = WT p53, 72 h, read-out: 72 h (MTT assay)
[10] = WT p53, 96 h, read-out: 96 h (MTT assay)

Q: `CCCc1ccc(OCC(=O)N(Cc2nc(-c3cccnc3)no2)C(C)C)cc1` [11ad] was tested. Which “fold improved CT-L activity” value ([1]; compared to the hit 1 (PI-1833)) did it give?
A: Its value is 20 fold.

Q: What about the IC50 ([1]; read-out: IC50, in vitro CT-L) of the same molecule?
A: The IC50 was 32 nM.

Q: What about the “inhibition of CT-L activity in cells, in words” value [2] of the same molecule?
A: The value was “inhibits CT-L; also recorded: more potent at inhibiting CT-L activity in human breast cancer”.

Q: What about the “inhibition of T-L activity in cells, in words” value [3] of the same molecule?
A: Its value is “not T-L or PGPH”.

Q: And the “inhibition of PGPH activity in cells, in words” value [4]?
A: Its value is “not T-L or PGPH”.

Q: What about the “accumulation of proteasome substrates p27, Bax and IKB, in words” value [5] of the same molecule?
A: Its value is “more potent at accumulating the proteasome substrates p27, Bax and IKB”.

Q: What about the “induction of apoptosis, in words” value [6] of the same molecule?
A: The value was “efficiently inducing apoptosis”.

Q: And the IC50 (MDA-MB-468; mut p53, 72 h, read-out: 72 h (MTT assay))?
A: The IC50 was 25.4 ± 5.83 µM.

Q: What about the IC50 (MDA-MB-468; mut p53, 96 h, read-out: 96 h (MTT assay)) of the same molecule?
A: The IC50 was 11.6 µM.

Q: What about the IC50 (MDA-MB-231; [7]) of the same molecule?
A: The IC50 was 133 ± 21.6 µM.

Q: And the IC50 (MDA-MB-231; [8])?
A: Its IC50 is 106 µM.

Q: And the IC50 (HCT-116; [9])?
A: Its IC50 is 40.9 ± 15.8 µM.

Q: And the IC50 (HCT-116; [10])?
A: Its IC50 is 35.3 µM.

Q: What about the IC50 (HCT-116-p53^−/−; [7]) of the same molecule?
A: The IC50 was 45.9 ± 19.9 µM.

Q: And the IC50 (HCT-116-p53^−/−; [8])?
A: The IC50 was 31.1 µM.

Q: What about the IC50 (HCT-116-HKH2; [9]) of the same molecule?
A: Its IC50 is 43 ± 9.73 µM.

Q: And the IC50 (HCT-116-HKH2; [10])?
A: Its IC50 is 12.8 µM.

Q: What about the IC50 (DU-145; [7]) of the same molecule?
A: The IC50 was 123 ± 25.2 µM.

Q: What about the IC50 (DU-145; [8]) of the same molecule?
A: Its IC50 is 159 µM.

Q: What about the IC50 (LNCaP; [7]) of the same molecule?
A: The IC50 was 49 ± 6.81 µM.

Q: What about the IC50 (LNCaP; [8]) of the same molecule?
A: The IC50 was 17.2 µM.

Q: What about the IC50 (PC3; PC3, 72 h, read-out: 72 h (MTT assay)) of the same molecule?
A: The IC50 was 92.7 µM.

Q: And the IC50 (PC3; PC3, 96 h, read-out: 96 h (MTT assay))?
A: The IC50 was 62.5 µM.

Q: What about the IC50 (RPMI-8226; RPMI-8226, 72 h, read-out: 72 h (MTT assay)) of the same molecule?
A: Its IC50 is 35.9 ± 11.2 µM.

Q: And the IC50 (RPMI-8226; RPMI-8226, 96 h, read-out: 96 h (MTT assay))?
A: The IC50 was 34.7 µM.

Q: And the IC50 (Colo357)?
A: The IC50 was 95.7 µM.

Q: What about the IC50 (RX7-397) of the same molecule?
A: The IC50 was 56.9 µM.

Q: And the IC50 (MCF-10A)?
A: The IC50 was 63.1 ± 7.06 µM.
